Results reported in a compilation of properties of binary mixtures (doi:10.1016/j.molliq.2014.10.017).

Assay: xn = mol fraction of the nth substance listed
Conditions: 101 kPa

CC#N + CCOS(=O)(=O)[O-].CC[n+]1ccn(C)c1
x1 = 1
Conditions	speed of sound [m/s]
293.15 K	1298.8
298.15 K	1279
303.15 K	1258.8
308.15 K	1238.6
313.15 K	1218.5

CCOS(=O)(=O)[O-].CC[n+]1ccn(C)c1 + CC#N
speed of sound [m/s]
Conditions	293.15 K	298.15 K	303.15 K	308.15 K	313.15 K
x2 = 0	1693.1	1680.8	1668.5	–	1644.4
x2 = 0.0934	–	1670.3	–	–	1633.5
x2 = 0.1936	1667	1654.5	1641.9	1629.3	1616.8
x2 = 0.2906	1649.5	1639.7	1623.8	1610.9	1598.1
x2 = 0.397	1626.4	1613.3	1599.9	1586.6	1573.5
x2 = 0.4967	1592.4	1578.7	1564.7	1550.8	1537
x2 = 0.5938	–	1552.3	–	1523.5	–
x2 = 0.7001	–	–	–	1474.1	1458.9
x2 = 0.7953	1464.6	1448.5	1432.3	1416	1399.8
x2 = 0.8951	–	1373.4	–	1337.9	1320.2
x2 = 0.9516	1343.4	1324.8	–	1287.1	1268.3

CCCC[n+]1ccn(C)c1.N#C[S-] + CC#N
speed of sound [m/s]
Conditions	293.15 K	298.15 K	303.15 K	308.15 K	313.15 K
x2 = 0	1778.8	1767.2	1755.4	1743.7	1732.1
x2 = 0.0984	1764.8	1752.9	1740.8	1728.9	1717
x2 = 0.1936	1749.3	–	1724.7	1712.5	1700.3
x2 = 0.3061	–	1714.1	1701.4	1688.7	1676.1
x2 = 0.4068	1701.6	1688.5	1675.3	1662.1	1649
x2 = 0.4899	–	1662.5	1648.8	1635.2	1621.7
x2 = 0.5994	1633.3	1618.7	1604.2	1589.7	1575.4
x2 = 0.6925	1586.2	1571.2	–	1540.8	1525.7
x2 = 0.7988	–	1498.6	–	1465.7	1449.4
x2 = 0.8971	1426.5	1408.9	1391	1373.1	1355.2
x2 = 0.9465	1372.3	1353.6	1334.8	1316	1297.2

CC#N + CCCC[n+]1ccn(C)c1.N#C[S-]
x1 = 1
Conditions	speed of sound [m/s]
303.15 K	1258.8
313.15 K	1218.5
